Source: ChEMBL document CHEMBL1201862, “PubChem BioAssay data set” (2004)
Calls of active or inactive are those of the source. Rule as the data show it, for most assays here: actives have a measured EC50 and inactives only a lower limit.

Experiments:
[1] = system: H9c2; experiment: cells; type: functional, cell-based; conditions: Rattus norvegicus, H9c2, Myocardium;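 also: confirmatory concentration-response retest of ultra-high-throughput screening hits for modulation of myocardial damage; cell death induced by hydrogen peroxide oxidative stress; compound pretreatment for 60 min then peroxide exposure for 2 h; potency is for protecting the cells against peroxide damage rather than for killing them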
[2] = molecular target: Paired box protein Pax-8 (Homo sapiens, UniProt Q06710); experiment: PAX8 transcriptional activity inhibition in RMG-I – RMG-I cells, luciferase, cherry-pick, dose response (AID 687027); type: functional, cell-based;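 also: luciferase reporter driven by Pax8 target thyroperoxidase promoter measured by SteadyGlo luminescence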
[3] = system: H4; experiment: Luminescence Cell-Based Dose Response HTS to Identify Activators of 5'UTR Stem-Loop Driven Prion Protein mRNA Translation in H4 Neuroglioblastoma Cells. [Related pubchem assays: 1829 (Project Summary), 1814 (Primary HTS)]; type: functional; conditions: Homo sapiens
[4] = Luminescence Cell-Based Dose Confirmation HTS to Identify Activators of 5'UTR Stem-Loop Driven Alpha-Synuclein mRNA Translation in H4 Neuroglioblastoma Cells. [Related pubchem assays: 1829 (Project Summary), 1814 (Primary HTS)]; type: functional
[5] = Luminescence Cell-Based Dose Response HTS to Identify Activators of Luciferase Translation or Activity in H4 […] Cells. [Related pubchem assays: 1829 (Project Summary), 1814 (Primary HTS)]; type: functional
[6] = DRD fibroblast viability loss – cell-based, non-viral oncogenic, luminescence, dose response (AID 1934); type: functional; conditions: Homo sapiens
[7] = NIH-3T3 fibroblast cytotoxicity, dose response, cytotoxicity control, cell-based, fluorescence, Alamar Blue, secondary assay (AID 2327); type: functional;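 also: NIH-3T3 mouse fibroblasts cultured with fluconazole at 8 µg/mL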
[8] = Luminescence Cell-Based Dose Confirmation HTS to Identify Inhibitors of Platelet Dense Granule Release. [Related pubchem assays: 1663 (Primary HTS), 1678 (Summary of Project)]; type: functional
[9] = molecular target: Luciferin 4-monooxygenase (Photinus pyralis, UniProt P08659); experiment: inhibition of purified Photinus pyralis luciferase – biochemical, luminescence, dose response (AID 1891)
[10] = fluconazole-exposed Candida albicans growth modulators – fluorescence, retest, confirmation (AID 2467); type: functional, cell-based
[11] = system: BJ; experiment: BJ-TERT fibroblast viability loss – cell-based, RAS-independent, luminescence, dose response (AID 1933); type: functional; conditions: Homo sapiens
[12] = system: BJ; experiment: cells; type: functional, cell-based; conditions: Homo sapiens
[13] = system: BJ; experiment: BJ-TERT-LT-ST fibroblast viability loss – cell-based, RAS-independent, luminescence, dose response (AID 1935); type: functional; conditions: Homo sapiens;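 also: BJ fibroblasts immortalized with TERT plus LT and ST oncogenes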
[14] = cells; type: functional, cell-based
[15] = cells; type: functional, cell-based; remark: listed apart in the source
[16] = system: INS1; experiment: INS-1E survival protection against cytokine death – cell-based, luminescence, retest, dose response (AID 449756); type: functional; conditions: Rattus norvegicus;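 also: cell death triggered by IL-1 beta plus TNF-alpha plus IFN-gamma mixture; protective hits raise ATP signal compared with cytokine alone wells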
[17] = Luminescence Cell-Based Dose Retest to Confirm Inhibitors of Cancer Stem Cells. [Related pubchem assays (depositor defined):AID2717, AID2721]; type: functional; conditions: Homo sapiens
[18] = NIH3T3 cell viability loss – ATP luminescence, mouse fibroblasts, counter-screen, dose response (AID 2010); type: functional, cell-based;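 also: cells exposed to compound for about 90 hours before reading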
[19] = molecular target: Large T antigen (Simian virus 40, UniProt P03070); type: functional, Betapolyomavirus macacae;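 also: Confirmatory-stage PubChem screen for compounds that inhibit SV40 T antigen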
[20] = Trypanosoma cruzi growth suppression in host cells – NIH3T3 host cells, beta-gal luminescence, confirmation (AID 2044); type: functional, cell-based;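 also: intracellular parasites grown in NIH/3T3 mouse fibroblasts as host cells; luminescent beta-galactosidase reporter signal from transgenic T. cruzi replicating inside host cells; inhibitors lower the luminescence signal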
[21] = P. falciparum Dd2 growth inhibitors, dose response, SYBR Green, cherry-picked samples (AID 1159567); type: functional, cell-based
[22] = molecular target: T1, DNA repair protein RAD52 homolog (Homo sapiens, UniProt P43351); type: functional, biochemical
T1 sequence (P43351 whole entry): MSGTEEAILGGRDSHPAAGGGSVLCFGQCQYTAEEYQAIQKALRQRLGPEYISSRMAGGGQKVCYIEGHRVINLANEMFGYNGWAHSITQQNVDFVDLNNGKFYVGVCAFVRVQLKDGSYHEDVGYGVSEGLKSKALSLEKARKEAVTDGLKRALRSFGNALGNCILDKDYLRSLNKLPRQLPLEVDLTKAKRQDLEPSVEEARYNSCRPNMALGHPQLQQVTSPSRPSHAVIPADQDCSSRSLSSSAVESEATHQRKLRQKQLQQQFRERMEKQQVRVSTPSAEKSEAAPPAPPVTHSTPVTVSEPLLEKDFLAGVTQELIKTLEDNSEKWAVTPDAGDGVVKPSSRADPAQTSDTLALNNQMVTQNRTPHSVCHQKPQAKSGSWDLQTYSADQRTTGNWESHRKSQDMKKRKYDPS

[23] = molecular target: T2, Protein skinhead-1 (Caenorhabditis elegans, UniProt P34707); type: functional
T2 sequence (P34707 whole entry): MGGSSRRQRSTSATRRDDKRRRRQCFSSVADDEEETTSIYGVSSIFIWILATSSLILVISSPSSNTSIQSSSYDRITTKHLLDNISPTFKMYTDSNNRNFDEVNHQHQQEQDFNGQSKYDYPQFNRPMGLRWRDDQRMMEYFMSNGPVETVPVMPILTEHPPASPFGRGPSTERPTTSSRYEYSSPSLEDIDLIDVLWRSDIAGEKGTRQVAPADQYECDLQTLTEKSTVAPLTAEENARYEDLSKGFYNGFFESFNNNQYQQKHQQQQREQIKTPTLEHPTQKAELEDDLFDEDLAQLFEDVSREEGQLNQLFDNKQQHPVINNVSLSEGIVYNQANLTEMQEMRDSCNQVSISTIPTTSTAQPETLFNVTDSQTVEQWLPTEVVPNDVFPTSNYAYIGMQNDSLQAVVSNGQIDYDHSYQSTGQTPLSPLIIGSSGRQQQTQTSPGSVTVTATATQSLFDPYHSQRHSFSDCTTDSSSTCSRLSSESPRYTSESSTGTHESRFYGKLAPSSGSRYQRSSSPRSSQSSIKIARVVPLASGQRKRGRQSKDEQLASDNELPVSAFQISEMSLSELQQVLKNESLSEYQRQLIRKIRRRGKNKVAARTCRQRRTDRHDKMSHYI

[24] = molecular target: Heat shock protein HSP 90-alpha (Homo sapiens, UniProt P07900); type: functional, organism-based

Chain of Luciferin 4-monooxygenase (P08659 whole entry): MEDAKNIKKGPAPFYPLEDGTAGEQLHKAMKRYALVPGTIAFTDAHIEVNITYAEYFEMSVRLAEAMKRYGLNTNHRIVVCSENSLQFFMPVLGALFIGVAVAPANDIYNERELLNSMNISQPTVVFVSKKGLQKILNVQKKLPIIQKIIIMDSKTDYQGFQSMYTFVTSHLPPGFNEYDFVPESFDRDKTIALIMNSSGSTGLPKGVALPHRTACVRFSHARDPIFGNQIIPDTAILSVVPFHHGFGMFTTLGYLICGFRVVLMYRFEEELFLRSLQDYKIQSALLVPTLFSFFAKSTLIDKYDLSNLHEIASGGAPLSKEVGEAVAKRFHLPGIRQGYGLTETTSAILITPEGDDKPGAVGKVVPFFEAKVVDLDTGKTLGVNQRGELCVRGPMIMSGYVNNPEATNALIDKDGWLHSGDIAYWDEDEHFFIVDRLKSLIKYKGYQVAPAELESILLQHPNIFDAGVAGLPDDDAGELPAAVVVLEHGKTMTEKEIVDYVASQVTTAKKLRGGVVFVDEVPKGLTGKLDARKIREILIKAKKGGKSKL
Chain of Paired box protein Pax-8 (Q06710 whole entry): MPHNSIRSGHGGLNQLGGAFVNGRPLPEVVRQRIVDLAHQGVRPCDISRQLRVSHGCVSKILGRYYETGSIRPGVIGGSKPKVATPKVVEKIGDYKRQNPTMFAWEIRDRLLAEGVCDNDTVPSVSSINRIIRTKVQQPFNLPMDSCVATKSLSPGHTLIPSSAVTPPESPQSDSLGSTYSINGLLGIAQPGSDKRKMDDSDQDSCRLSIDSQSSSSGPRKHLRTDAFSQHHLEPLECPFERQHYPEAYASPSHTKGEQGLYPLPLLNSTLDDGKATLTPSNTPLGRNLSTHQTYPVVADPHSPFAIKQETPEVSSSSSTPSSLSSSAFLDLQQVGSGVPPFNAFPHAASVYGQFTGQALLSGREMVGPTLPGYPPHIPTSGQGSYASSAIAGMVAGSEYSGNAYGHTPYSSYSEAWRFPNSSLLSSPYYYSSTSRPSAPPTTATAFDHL
Chain of Large T antigen (P03070 whole entry): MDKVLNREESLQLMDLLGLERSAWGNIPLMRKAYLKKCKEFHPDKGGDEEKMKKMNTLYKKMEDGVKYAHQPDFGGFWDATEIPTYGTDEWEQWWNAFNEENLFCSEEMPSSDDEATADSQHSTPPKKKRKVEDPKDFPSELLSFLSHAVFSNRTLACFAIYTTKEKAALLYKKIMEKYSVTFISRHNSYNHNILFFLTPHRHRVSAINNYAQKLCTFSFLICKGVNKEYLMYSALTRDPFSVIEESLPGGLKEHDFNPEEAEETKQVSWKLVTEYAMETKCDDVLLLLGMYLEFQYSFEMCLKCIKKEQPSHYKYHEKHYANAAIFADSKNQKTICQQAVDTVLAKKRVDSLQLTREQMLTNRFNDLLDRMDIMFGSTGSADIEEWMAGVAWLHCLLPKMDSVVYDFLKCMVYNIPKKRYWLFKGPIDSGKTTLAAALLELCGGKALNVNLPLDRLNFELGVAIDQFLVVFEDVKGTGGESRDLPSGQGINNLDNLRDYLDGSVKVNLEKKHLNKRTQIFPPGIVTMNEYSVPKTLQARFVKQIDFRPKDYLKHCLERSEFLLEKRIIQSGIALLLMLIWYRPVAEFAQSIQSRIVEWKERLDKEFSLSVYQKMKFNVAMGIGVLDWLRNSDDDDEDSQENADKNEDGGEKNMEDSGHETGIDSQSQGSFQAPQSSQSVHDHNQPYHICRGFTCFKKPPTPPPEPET

CC(OC(=O)Cc1nnc(O)c2ccccc12)C(=O)Nc1cccc([N+](=O)[O-])c1 (stereo not given)
IC50 [1]: > 79 µM (inactive)

C=C(C)C(=O)OC1(C(F)(F)F)Oc2cc(C)ccc2NC1=O (stereo not given)
AC50 [2]: 9.05 µM (active)

Cc1ccc(Nc2cc(-n3cccn3)ncn2)c(C)c1
EC50 [3]: < 0.1 µM (active)
EC50 [4]: 0.12 µM (active)
EC50 [5]: 0.619 µM (active)

CCN=C(S)NNC(=O)c1cc(-c2ccc(OC)cc2)nc2ccccc12
EC50 [6]: 11 µM (active)
EC50 [7]: > 160 µM (inactive)
EC50 [8]: 1.38 µM (active)
EC50 [9]: 0.107 µM (active)
EC50 [10]: > 38 µM (not active)
EC50 [11]: 9.62 µM (active)
EC50 [12]: 14 µM (active)
EC50 [13]: > 150 µM (not active)

CCc1nc(C)c(C(=O)N2CCCC(C(=O)Nc3cccc(-c4cccc(C)c4)c3)C2)o1 (stereo not given)
EC50 [3]: 16.3 µM (active)
EC50 [4]: 8.19 µM (active)
EC50 [5]: 7.7 µM (active)

O=C(N1CCOCC1)N1CCN(S(=O)(=O)N2CCOCC2)CC1
EC50 [8]: > 112 µM (not active)
EC50 [9]: > 112 µM (not active)

Cc1ccc(C(=O)NC(=S)NNC(=O)c2ccccc2[N+](=O)[O-])cc1
EC50 [7]: 18.8 µM (inconclusive)
EC50 [10]: > 38 µM (not active)

Cc1ccc(S(=O)(=O)Nc2ccc3c(c2)C(=O)N([C@@H](C)CO)C[C@@H](C)[C@H](CN(C)Cc2ccc(Cl)c(Cl)c2)OCCCC[C@@H](C)O3)cc1
AC50 [2]: 7.92 µM (active)

CC1=CS/C(=C(/C#N)C(=O)N2CCOCC2)N1c1ccccc1
EC50 [8]: > 112 µM (not active)
EC50 [9]: > 112 µM (not active)

COC(=O)c1cnn2c(O)c(Cc3ccc(F)cc3Cl)c(C)nc12
EC50 [7]: > 150 µM (inactive)
EC50 [10]: 1.33 µM (active)

CCc1nnc(NC(=O)CCC(=O)N2CCN(C3c4ccccc4-c4ccccc43)CC2)s1
IC50 [1]: 17.4 µM (active)

Cc1ccc(N2CC(=O)Nc3c(sc4nc(C)cc(C)c34)C2=O)cc1
EC50 [14]: > 350 µM (not active)
EC50 [15]: > 350 µM (not active)

CC1(C)C(=O)C(c2nc3ccccc3[nH]2)=C(N)N1c1ccccc1
EC50 [7]: 58.9 µM (active)
EC50 [10]: 5.1 µM (active)

CCC1(c2ccc(Cl)cc2)N=C(S)N(c2ccc(C)cc2)N1 (stereo not given)
EC50 [3]: 14.7 µM (inconclusive)
EC50 [4]: 19.1 µM (active)
EC50 [5]: 11.2 µM (active)

O=C1Cc2ccccc2Sc2ccc(Cl)cc21
EC50 [8]: > 112 µM (not active)
EC50 [9]: > 112 µM (not active)

COC(=O)c1ccc2c(O)nc(COC(=O)c3[nH]c(C)c(C(C)=O)c3C)nc2c1
IC50 [1]: 7.05 µM (active)

C/C(N)=C(/C#N)C(=O)COC(=O)c1cc(-c2ccc(C)cc2)nc2ccccc12
AC50 [16]: > 260 µM (inactive)
AC50 [17]: 17.4 µM (active)

COc1ccc(-c2cc(C(=O)N(C)Cc3nc(O)c4ccccc4n3)c3ccccc3n2)cc1OC
IC50 [1]: > 79 µM (inactive)

COc1cc(CC(=O)Nc2ccc(Cl)c(C(F)(F)F)c2)cc(OC)c1OC
EC50 [14]: > 350 µM (not active)
EC50 [15]: > 350 µM (not active)

CCOc1ccccc1CNS(=O)(=O)c1c[nH]cn1
EC50 [8]: > 112 µM (not active)
EC50 [9]: > 112 µM (not active)

O=C(CCSc1ccc(Cl)cc1)N1CCN(c2ccc(O)cc2)CC1
EC50 [18]: 6.9 µM (active)
IC50 [19]: 6.74 µM (active)
EC50 [20]: 0.169 µM (active)
AC50 [17]: 2.51 µM (active)

O=C(CCS(=O)(=O)c1ccccc1)Nc1ncc([N+](=O)[O-])s1
EC50 [7]: > 150 µM (inactive)
EC50 [10]: 0.746 µM (active)

COc1ccccc1NC(=O)c1c(Nc2ccccc2F)sc(C(=O)Nc2cccc(Cl)c2)c1N
AC50 [17]: 1.16 µM (active)

COC(=O)c1ccc(CSc2nc3c(c(=O)n2-c2ccc(F)cc2)SCC3)o1
EC50 [14]: > 350 µM (not active)
EC50 [15]: > 350 µM (not active)

Cn1nc(C(=O)NC2CCCCC2)c2c1-c1ccccc1SC2
EC50 [3]: 12.2 µM (active)
EC50 [4]: 13.4 µM (active)
EC50 [5]: 25.7 µM (active)

O=C(CSC1=NCCS1)N1CCc2ccccc21
EC50 [3]: 15.4 µM (active)
EC50 [4]: 10.7 µM (active)
EC50 [5]: 45.7 µM (active)

CCOC(=O)C1=c2s/c(=C\c3ccncc3)c(=O)n2C(N)=C(C(=O)OC)C1c1ccncc1 (stereo not given)
IC50 [1]: > 79 µM (inactive)

CCn1cc(C(=O)N[C@@H](CCSC)C(=O)NCCCn2ccnc2)c(=O)c2cc3c(cc21)OCO3
EC50 [8]: > 112 µM (not active)
EC50 [9]: > 112 µM (not active)

COc1ccc(N(CC(=O)Nc2ccc3c(c2)OCO3)S(=O)(=O)c2ccccc2)c(OC)c1
IC50 [1]: > 79 µM (inactive)

O=C(Cn1c(S)nc2ccccc21)c1ccccc1
EC50 [8]: > 112 µM (not active)
EC50 [9]: > 112 µM (not active)

COc1ccc2occ(C(=O)c3cccs3)c2c1
EC50 [3]: 32.6 µM (active)
EC50 [4]: 6.67 µM (active)
EC50 [5]: 13.3 µM (active)

COc1ccc(C#Cc2ccc3c(c2)[C@H]2[C@H](CCN2C(=O)c2ccccn2)[C@H](CO)N3)cc1
AC50 [21]: 5.61 µM (active)

Cc1ccc2c(c1)C1CN(C)CCC1N2Sc1ccccc1[N+](=O)[O-] (stereo not given)
EC50 [7]: > 150 µM (inactive)
EC50 [10]: > 38 µM (not active)

Cc1cccc(OCC(=O)Nc2ccc3c(c2)nc(CN2CCCCC2)n3C)c1
AC50 [22]: 20 µM (active)

Cc1ccc(/N=C/c2cc(Cl)cc(Cl)c2O)nc1
IC50 [1]: 13.5 µM (active)

Cc1ccc(O)c(-c2cc(-c3cccc(F)c3)[nH]n2)c1
IC50 [23]: > 100 µM (inactive)
AC50 [24]: 25.4 µM (active)

N#CCC(=O)N/N=C/c1ccc(SCC(=O)Nc2ccccc2)o1
EC50 [14]: > 350 µM (not active)
EC50 [15]: > 350 µM (not active)

C[C@@H](C(=O)N(C)C[C@@H]1OCc2ccccc2-c2c(n(C)c3ccccc23)C(=O)N([C@@H](C)CO)C[C@@H]1C)c1ccccc1
AC50 [21]: 6.3 µM (active)

COc1ccc(CCNC(=O)c2cc(S(=O)(=O)N3CCOCC3)cn2C)cc1OC
EC50 [8]: > 112 µM (not active)
EC50 [9]: > 112 µM (not active)

CCC1CCCCN1Cc1c(O)ccc2c(=O)c(-c3ccccc3OC)coc12 (stereo not given)
EC50 [14]: > 350 µM (not active)
EC50 [15]: > 350 µM (not active)

CSC1=NN=C(c2ccc(C(C)(C)C)cc2)NN1
EC50 [3]: 16.9 µM (active)
EC50 [4]: 15.2 µM (active)
EC50 [5]: 36.5 µM (active)

O=C(NCc1cccnc1)C(=O)NCC1OCCN1S(=O)(=O)c1ccccc1 (stereo not given)
EC50 [8]: > 112 µM (not active)
EC50 [9]: > 112 µM (not active)

COc1ccc(-c2nnc3sc(-c4ccco4)nn23)cc1OC
IC50 [1]: > 79 µM (inactive)

Cc1cc([N+](=O)[O-])ccc1NC(=O)CSc1nncn1-c1cccnc1
EC50 [8]: > 112 µM (not active)
EC50 [9]: > 112 µM (not active)

COC(=O)c1ccc(Cn2nnc3c(O)nc(C4CCCN(S(=O)(=O)c5ccccc5)C4)nc32)cc1 (stereo not given)
IC50 [1]: 18.3 µM (active)
